For orientation: IC50 means the point on the concentration scale where inhibition reaches its midpoint.

Test [1] deals with CL141 cells. Put plainly: Side population analysis (Hoechst 33342, flow cytometry). The class given is cell-based, human. How it is done: Single-cell suspensions of cells were detached from dishes with Trypsin-EDTA (Invitrogen) and suspended at 1×10^6 cells/mL in Hank's balanced salt solution (HBSS) supplemented with 3% fetal calf serum and 10 mM Hepes. […] After 90 minutes incubation, the cells were centrifuged immediately for 5 minutes at 300 g and 4° C. and resuspended in ice-cold HBSS. The cells were kept on ice to inhibit efflux of the Hoechst dye, and 1 μg/mL propidium iodide (BD) was added to discriminate dead cells. Finally, these cells were filtered through a 40 μm cell strainer (BD) to obtain single-suspension cells. Cell dual-wavelength analysis and purification were performed on a dual-laser FACS Vantage SE (BD). […] A 610 nm dichroic mirror short-pass (DMSP) was used to separate the emission wavelengths. PI-positive (dead) cells were excluded from the analysis.
(In general: Flow cytometry measures light scatter and fluorescence of single cells or particles in a stream.)

In test [2] the test system is A549 cells. Description: Clonogenic assay. The class given is cell-based, human. On the procedure:
The NSCLC cancer cell lines, A549, H1975, CL25, CL83, CL97, CL141, and CL152 were maintained in RPMI medium. Tested cells were seeded respectively in 6 well plates with 10^4 cells per well for 14 days. Each well contained 10 ml RPMI medium as cultured condition for NSCLC cells. […] Trifluoperazine and other tested drugs were added 24 hours after seeding of the cells. The medium and trifluoperazine were changed once on day 4. After the treatments, cells were washed with PBS, and the colonies were fixed with fix solution (acetic acid:methanol=1:3) and stained with 0.5% crystal violet in methanol. After removing the crystal violet carefully and rinse with tap water, the colonies were counted manually.

For test [3], the system named is A549 cells. Description: MTT assay (cell viability). It is filed as cell-based, human. To be noted: A549 cells, read-out: MTT assay (IC50). The source says:
In addition to the commonly used cell lines (A549 and H1975), we also established several cell lines including CL83, CL141, CL152, CL25, and CL97 cell lines which were isolated from the pleural effusion of NSCLC patients at the National Taiwan University Hospital. The investigation was approved by the Institutional Review Board of the National Taiwan University Hospital. Informed consent was obtained before pleural effusion was collected.
A general note: Formazan colour is commonly taken as a measure of viable cells.

Test [4] relates to CL141 spheroids. Put plainly: Cisplatin response of spheroids versus parental cells (IC50, viability, caspase-3 activity). It is filed as cell-based, human. The source says:
(§1) We selected three gefitinib-resistant NSCLC cell lines, CL141 (wild type EGFR), CL83 (wild type EGFR) and CL97 (EGFR-G719A+T790M acquired resistant mutation) to determine if trifluoperazine could sensitize these cells towards chemotherapeutic agents.

Test [5] relates to CL97 spheroids. The description is as above. The class given is cell-based, human.
Excerpt: as §1

Test [6] concerns CL83 spheroids. Described as above. It is filed as cell-based, human.
Excerpt: as §1

The test system of test [7] is CL97-L2G cells. Description: Bulk lung tumor model, bioluminescent imaging. To be noted: 4 weeks, trifluoperazine 5 mg/kg/day i.p., gefitinib 150 mg/kg/day oral gavage, combination trifluoperazine 5 mg/kg/day i.p. + gefitinib 100 mg/kg/day oral. It is filed as in vivo, NOD/SCID mice. How it is done: For bulk lung tumor model, CL97-[…] cells were intravenously administered into the animals via tail vein at a concentration of 1×10^6 cells/100 μl PBS. One week post tumor injection, different treatment regimens were started. […] CL97-[…]-bearing mice (both bulk lung tumor and CSC models) were imaged weekly using the IVIS 200 system (Caliper Life Sciences). Data are expressed as fold change in total photon flux/initial total photon flux and were analyzed using Living Image 1.0 software (Caliper Life Sciences). Mice were humanely sacrificed at the end of experiments and lung tumor biopsies were obtained for further analysis.

For test [8], the system named is CL97-L2G tumor samples. Put plainly: Protein profiles of tumor biopsies (Western blot). It is filed as in vivo, NOD/SCID mice. To be noted: tumor biopsies of treated mice. On the procedure:
Total cell lysates were harvested from tumor biopsies of mice which received different treatments and their protein profiles were examined.
Cells were lysed in lysis buffer (50 mM Tris-HCl, pH 7.4, 5 mM MgCl2, 1% Nonidet P-40, 150 mM NaCl, 1 mM phenylmethylsulfonyl fluoride). Total protein was isolated and subjected to SDS polyacrylamide gel electrophoresis and electrotransfered onto PVDF membranes (Millipore). Primary antibodies Bax, Bak, Bcl-2, XIAP, Mcl-1, Cleaved Caspase 9, Caspase 3, […], c-Myc, CD44, cyclin D1 were obtained from Cell Signaling, Met was purchased from Santa Cruz and CD133 was from Miltenyi Biotec, and secondary antibodies for anti-mouse and anti-rabbit horseradish preoxidase (HRP)-conjugation were from Chemicon International. The protein detection was performed with enhanced chemiluminescence (ECL™) method captured by a Luminescence Imaging System (LAS-4000™, Fuji Photo Film Co., Ltd).
. […] CL97-L2G-bearing mice (both bulk lung tumor and CSC models) were imaged weekly using the IVIS 200 system (Caliper Life Sciences). Data are expressed as fold change in total photon flux/initial total photon flux and were analyzed using Living Image 1.0 software (Caliper Life Sciences). Mice were humanely sacrificed at the end of experiments and lung tumor biopsies were obtained for further analysis.

With `CC(=O)c1ccc2c(c1)N(CCCN(C)C)c1ccccc1S2` [Acepromazine], the Reduced side population result in test [1] was “No”. Moreover, the IC50 in test [2] (Homo sapiens) was 1 to 2.5 µM; in test [3] (Homo sapiens), more than 10 µM.
As to `CN(C)CCCN1c2ccccc2Sc2ccc(Cl)cc21` [Chlorpromazine], in test [1], the Reduced side population result is on record as “Yes”. Besides, the IC50 fell in the range of 2.5 to 5 µM in test [2] and 5 to 10 µM in test [3].
Take `OCCN1CCN(CCCN2c3ccccc3Sc3ccc(C(F)(F)F)cc32)CC1` [Fluphenazine]: in test [1], the Reduced side population entry is recorded as “No”.
Still for that read-out and setting: then `CN1CCN(CCCN2c3ccccc3Sc3ccc(Cl)cc32)CC1` [Prochlorperazine], with “No”.
In the case of `CN(C)CCCN1c2ccccc2Sc2ccccc21` [Promazine], in test [1], the Reduced side population entry is reported as “Yes”. In test [3] (Homo sapiens), the IC50 is more than 10 µM.
For `CN(C)CCCN1c2ccccc2Sc2ccc(C(F)(F)F)cc21` [Triflupromazine] the same measures were “Yes” and more than 10 µM.
Take `N.N.[Cl][Pt][Cl]` [cisplatin]: the “IC50 of spheroids compared with parental cells” value in test [4], in test [5] and in test [6] was “significantly higher IC50” throughout. Further, the “caspase-3 activity of spheroids compared with parental cells” value was “lower caspase-3 activity” in test [4] (10 μM, 24 hours); “lower caspase-3 activity” in test [5] (10 μM, 24 hours); “lower caspase-3 activity” in test [6] (10 μM, 24 hours). For the same compound, the “viability of spheroids compared with parental cells” value is listed as “higher viability” in test [4] (10 μM, 24 hours); “higher viability” in test [5] (10 μM, 24 hours); “higher viability” in test [6] (10 μM, 24 hours).
For `COc1cc2ncnc(Nc3ccc(F)c(Cl)c3)c2cc1OCCCN1CCOCC1` [gefitinib], the figures for the “tumor burden (fold change in bioluminescence intensity)” value in test [7] and in test [7] (listed as genfitnib) were “not significantly different” and “no effects in suppressing tumor recurrence”, respectively. The “c-Myc and β-catenin expression in tumor samples” value in test [8] was “did not significantly influence”.
Pherphenazine [Perphenazine]: the Reduced side population result in test [1] is listed as “Yes”. Further, the IC50 was 5 to 10 µM in test [2] and more than 10 µM in test [3].
As for Promethazine, the Reduced side population entry in test [1] is reported as “No”. Besides, the IC50 was 5 to 10 µM in test [2] and more than 10 µM in test [3].
With Thioridazine, in test [1], the Reduced side population result is reported as “Yes”.

The record behind these values is patent US20140294994A1, “PHARMACEUTICAL COMPOSITION FOR ELIMINATION OF CANCER STEM CELLS” (priority 2011, published 2014).
